Assay results as given in PubChem BioAssay (NCI).
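Method: 48-hour compound exposure of cells in 96-well plates, five concentrations, linear interpolation of endpoints. At the GI50, growth is halved. Definition used: TGI = concentration required for complete inhibition of growth.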

Assays:
Assay in all cases: NCI tumour cell line growth inhibition, 48 h
[1] = tested on: CCRF-CEM leukemia
[2] = tested on: SF-268 CNS
[3] = tested on: OVCAR-4 ovarian
[4] = tested on: MOLT-4 leukemia
[5] = tested on: SF-539 CNS
[6] = tested on: K-562 leukemia
[7] = tested on: U251 CNS
[8] = tested on: HCC-2998 colon
[9] = tested on: NCI-H23 lung
[10] = tested on: COLO 205 colon
[11] = tested on: SF-295 CNS

| SMILES | TGI [1] [µM] | TGI [2] [µM] | TGI [3] [µM] | TGI [4] [µM] | TGI [5] [µM] | TGI [6] [µM] | TGI [7] [µM] | TGI [8] [µM] | TGI [9] [µM] | TGI [10] [µM] | TGI [11] [µM] | GI50 [1] [µM] | GI50 [2] [µM] | GI50 [3] [µM] | GI50 [4] [µM] | GI50 [5] [µM] | GI50 [11] [µM] | GI50 [6] [µM] | GI50 [8] [µM] | GI50 [9] [µM] |
| --- | --- | --- | --- | --- | --- | --- | --- | --- | --- | --- | --- | --- | --- | --- | --- | --- | --- | --- | --- | --- |
| Cc1cc(C)n(-c2nsc3ccccc23)n1 | > 100 | > 100 | > 100 | > 100 | > 100 | > 100 | > 100 | > 100 | > 100 | > 100 | – | – | – | – | – | – | – | – | – | – |
| CSc1nc(NC2OCC(O)C(O)C2O)c(N)c(=O)[nH]1 (stereo not given) | > 100 | > 100 | > 100 | > 100 | > 100 | > 100 | > 100 | > 100 | > 100 | > 100 | > 100 | – | – | – | – | – | – | – | – | – |
| Brc1ccc(C2CC(c3cccc4ccccc34)=Nc3ccccc3S2)cc1 (stereo not given) | 81.6 | > 100 | > 100 | > 100 | > 100 | > 100 | > 100 | > 100 | > 100 | > 100 | > 100 | – | – | – | – | – | – | – | – | – |
| C/C(N=NS(=O)(=O)c1ccccc1)=C1\C=CC=CN1O | > 100 | > 100 | > 100 | > 100 | > 100 | – | > 100 | > 100 | > 100 | – | > 100 | – | – | – | – | – | – | – | – | – |
| CC(C)(C)[Si](C)(C)OCC1OC(n2cnc3c(N)ncnc32)CC1O (stereo not given) | > 100 | – | > 100 | > 100 | – | > 100 | > 100 | – | > 100 | > 100 | > 100 | – | – | – | – | – | – | – | – | – |
| CC1CCC2(O)C3(C)CC4(O)OC2(C1O)C1(O)C3(O)C(OC(=O)c2ccc[nH]2)C(O)(C(C)C)C41C (stereo not given) | > 100 | > 31.6 | > 100 | > 100 | > 100 | > 100 | > 100 | > 100 | > 100 | > 100 | > 100 | – | – | – | – | – | – | – | – | – |
| c1coc(CNc2ncnc3[nH]ncc23)c1 | > 100 | > 100 | > 100 | > 100 | > 100 | > 100 | > 100 | > 100 | > 100 | > 100 | > 100 | – | – | – | – | – | – | – | – | – |
| CC(=O)c1ccc2c(c1)c1c(C)c3c[n+](C)ccc3c(C)c1n2C | > 46.3 | 3.52 | 54.4 | 20.8 | 13.9 | > 72.2 | 11.9 | > 100 | – | > 100 | 10.3 | – | – | – | – | – | – | – | – | – |
| NCCCOc1ccc([N+](=O)[O-])cc1Cl | > 100 | > 100 | > 100 | > 100 | > 100 | > 100 | > 100 | > 100 | > 100 | > 100 | > 100 | – | – | – | – | – | – | – | – | – |
| Fc1ccc(C2CC(c3cccc(Nc4ccncc4)c3)=NN2c2ccc(Cl)cc2)cc1 (stereo not given) | 9.87 | 3.45 | 3.05 | 5.33 | 3.07 | 4.86 | – | 2.96 | 3.62 | – | 3.23 | 3.12 | 1.75 | 1.64 | 2.12 | 1.65 | 1.8 | 1.86 | 1.55 | 1.84 |
| Cc1cc2c(cc1C)OC(=O)CC2 | > 100 | > 100 | > 100 | > 100 | > 100 | > 100 | > 100 | > 100 | > 100 | > 100 | > 100 | – | – | – | – | – | – | – | – | – |
| OCCOCCN1CCN(CCCN2c3ccccc3Sc3ccc(C(F)(F)F)cc32)CC1 | 1.32 | 33.1 | 30.2 | 29.8 | 25.9 | 10.3 | 24.7 | 13 | 31 | 3.57 | 25.8 | – | – | – | – | – | – | – | – | – |
| N#CN=[N+]([O-])c1ccc(C(=O)O)cc1 | 51.9 | 35.5 | 35.8 | – | 32.4 | 38.4 | 33 | > 100 | 33.7 | – | > 100 | – | – | – | – | – | – | – | – | – |
| CC(=O)OCC1=C(C(=O)O)N2C(=O)C(NC(=O)CSc3ccncc3)C2SC1 (stereo not given) | > 100 | > 100 | – | > 100 | > 100 | > 100 | > 100 | > 100 | > 100 | > 100 | > 100 | – | – | – | – | – | – | – | – | – |
| CCN(CC)CCNc1ccc2nnn3c4ccc(C)cc4c(=O)c1c23 | 25.6 | 22.3 | 25.2 | 12.2 | 18.7 | 25.9 | 24.7 | – | 24.7 | 20.6 | 18 | – | – | – | – | – | – | – | – | – |
| O=C1Nc2ccccc2C1=Nc1cccc2ncccc12 | – | > 100 | > 100 | > 100 | > 100 | > 100 | > 100 | – | > 100 | > 100 | > 100 | – | – | – | – | – | – | – | – | – |
